Results: publication PMC11249953, “c-KIT inhibitors reduce pathology and improve behavior in the Tg(SwDI) model of Alzheimer’s disease” (Life Science Alliance, 2024)
Where “and” joins values, the source holds several entries; their conditions need not be identical. Equal entries are not always repeated.

How the values were obtained:
DDR1 = target: T1, DDR1 (Homo sapiens, UniProt Q08345); experiment: KINOMEscan competition binding, DDR1; conditions: 10 µM compound
T1 construct: DNA label for qPCR read-out (T7 phage fusion or DNA tag); purchased Eurofins DiscoverX Corporation; host or cells: T7 phage in E. coli (BL21-derived) or HEK-293
Procedure: The KINOMEscan screening platform (Eurofins DiscoverX Corporation) was performed using active site-directed competition binding assay to quantitatively measure interactions between BK40143 and BK40197 and more than 450 human kinases and disease relevant mutant variants. […] Screening “hits” are identified by measuring the amount of kinase captured in test (BK40143 and BK40197) versus control samples by using a quantitative and ultra-sensitive qRT-PCR method that detects the associated DNA label. BK40143 and BK40197 were screened at 10 µM concentration, and results for primary screen binding interactions were reported as “% Ctrl” (POC), where lower numbers indicate stronger hits and calculated as follows: [test compound signal−positive control signal/negative control signal−positive control signal]×100
negative control = DMSO (100% Ctrl)
positive control = control compound (0% Ctrl)
Based on screening data from of profiled compounds, a proportional relationship between primary screening results and corresponding compound/target affinities can be described as binding constants (Kd values) for the indicated ranges of POC values with tighter binding (higher affinity) interactions associated with lower POC values and weaker binding (lower affinity) associated with higher POC values. Briefly, kinase-tagged T7 phage strains were grown in parallel in 24-well blocks in an E. coli host derived from the BL21 strain. E. coli were grown to log-phase and infected with T7 phage from a frozen stock (multiplicity of infection = 0.4) and incubated with shaking at 32°C until lysis (90–150 min). The lysates were centrifuged (6,000g) and filtered (0.2 μm) to remove cell debris. The remaining kinases were produced in HEK-293 cells and subsequently tagged with DNA for qRT-PCR detection. Streptavidin-coated magnetic beads were treated with biotinylated small molecule ligands for 30 min at RT to generate affinity resins for kinase assays. The liganded beads were blocked with excess biotin and washed with blocking buffer (1% BSA, 0.05% Tween 20, 1 mM DTT; SeaBlock [Pierce]) to remove unbound ligand and to reduce non-specific phage binding. Binding reactions were assembled by combining kinases, liganded affinity beads, and test compounds in 1x binding buffer (20% 0.17x PBS, 0.05% Tween 20, 6 mM DTT; SeaBlock). Test compounds were prepared as 100x stocks in 100% DMSO and directly diluted into the assay. All reactions were performed in polypropylene 384-well plates in a final volume of 0.02 ml. The assay plates were incubated at RT with shaking for 1 h and the affinity beads were washed with wash buffer (1x PBS, 0.05% Tween 20). […] The kinase concentration in the eluates was measured by qRT-PCR.

pTau = experiment: ELISA for pTau (S396) in brain lysates; format: in vivo, mouse; conditions: Tg4510 mice; vs DMSO
Procedure: All samples were analyzed in parallel using the same reagents. A total of 25 μl soluble protein was incubated overnight at 4°C with 25 μl of a mixed bead solution. After washing, samples were incubated with 25 μl detection antibody solution for 1.5 h at RT. Streptavidin–phycoerythrin (25 μl) was added to each well containing the 25 μl of detection antibody solution. Samples were then washed and suspended in 100 μl of sheath fluid. Samples were then run on MAGPIX with Xponent software. The median fluorescent intensity data were analyzed using a five-parameter logistic or spline curve-fitting method for calculating analyte concentrations in samples. Specific pTau ser396 (KHB7031; Invitrogen), aggregated Aβ (KHB3491; Thermo Fisher Scientific), and Aβ42 (KHB3442; Invitrogen) were performed according to manufacturer’s protocol on tissue soluble extracts from brain lysates in 1XSTEN buffer.

mice = experiment: Elevated plus maze, source data sheets EPM (mouse line not given); format: in vivo
Procedure: The elevated plus maze was performed using a standard set up, with two enclosed arms and two open arms. Mice were placed at the intersection of the open and closed arms and allowed to freely explore for 5 min, two times. Time spent in the open and closed arms and number of entries into the open and closed arms were recorded.

[1] = Totals (Trial 1 + Trial 2), individual animals, listed as 197
[2] = Trial 1, individual animals, listed as 197
[3] = Trial 2, individual animals, listed as 197
[4] = elevated plus maze, trial 1 + trial 2, one value per mouse, listed as 197
[5] = elevated plus maze, trial 1, one value per mouse, listed as 197
[6] = elevated plus maze, trial 2, one value per mouse, listed as 197

T1 sequence (Q08345 19-913): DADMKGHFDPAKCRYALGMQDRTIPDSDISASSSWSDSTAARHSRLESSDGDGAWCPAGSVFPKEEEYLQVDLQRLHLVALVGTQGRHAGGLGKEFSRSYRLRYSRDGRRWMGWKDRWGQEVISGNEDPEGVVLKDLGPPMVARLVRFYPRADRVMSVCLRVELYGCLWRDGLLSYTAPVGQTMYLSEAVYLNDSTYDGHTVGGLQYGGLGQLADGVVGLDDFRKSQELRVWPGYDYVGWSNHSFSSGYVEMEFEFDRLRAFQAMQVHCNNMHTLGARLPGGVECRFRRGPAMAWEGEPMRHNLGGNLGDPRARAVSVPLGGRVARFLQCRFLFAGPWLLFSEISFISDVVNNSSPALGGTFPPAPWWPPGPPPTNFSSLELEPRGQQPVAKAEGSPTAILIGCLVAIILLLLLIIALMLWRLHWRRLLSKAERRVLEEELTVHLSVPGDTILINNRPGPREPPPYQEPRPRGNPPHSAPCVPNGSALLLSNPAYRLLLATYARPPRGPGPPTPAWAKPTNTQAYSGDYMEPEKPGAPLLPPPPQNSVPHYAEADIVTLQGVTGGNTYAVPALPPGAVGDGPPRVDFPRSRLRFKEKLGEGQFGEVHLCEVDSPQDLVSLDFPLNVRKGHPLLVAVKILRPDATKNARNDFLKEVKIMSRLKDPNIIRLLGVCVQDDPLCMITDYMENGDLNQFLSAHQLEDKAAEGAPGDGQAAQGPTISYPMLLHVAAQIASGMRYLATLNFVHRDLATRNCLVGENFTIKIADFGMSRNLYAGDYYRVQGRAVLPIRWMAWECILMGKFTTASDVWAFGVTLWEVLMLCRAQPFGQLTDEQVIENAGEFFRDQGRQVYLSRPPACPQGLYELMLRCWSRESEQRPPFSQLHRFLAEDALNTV

`Cc1cccc(-c2cc3nccc(N4CCOCC4)c3s2)c1` [BK40197] was tested, and the inhibition at 10 µM (DDR1) was 0%, the remaining binding at 10 µM (DDR1; lower = stronger binding, read-out: DDR1 %Ctrl @ 10000nM) was 100% and the “pTau (396) concentration in brain lysate (ELISA)” value (pTau) was “significantly reduced Aβ and pTau (396) concentrations”. The “Closed Entries” value (mice; [1]) was 13 and 8 and 4 and 2 and 14 and 3 and 9, the “Open Entries” value (mice; [1]) was 8 and 9 and 7 and 13 and 15 and 5 and 10 and the “Time Closed” value (mice; Totals (Trial 1 + Trial 2), individual animals, listed as 197, in s) was 299 and 472 and 180 and 74 and 440 and 274 and 198 and 409. For the same compound, the “Time Open” value (mice; Totals (Trial 1 + Trial 2), individual animals, listed as 197, in s (unit assumed)) was 301 and 128 and 420 and 526 and 160 and 326 and 402 and 191, the “Closed Entries AVG” value (mice; Totals, group average) was 8.25 and the “Open Entries AVG” value (mice; Totals, group average) was 9.5. For the same compound, the “Time Closed AVG” value (mice; Totals, group average, in s) was 293.25, the “Time Open AVG” value (mice; Totals, group average, in s) was 306.75 and the “Closed Entries AVG” value (mice; Trial 1, group average) was 3.75. The “Open Entries AVG” value (mice; Trial 1, group average) was 6.5, the “Time Closed AVG” value (mice; Trial 1, group average, in s) was 86.375 and the “Time Open AVG” value (mice; Trial 1, group average, in s) was 213.625. The “Closed Entries” value (mice; [2]) was 3 and 4 and 1 and 8 and 0 and 7, the “Open Entries” value (mice; [2]) was 5 and 6 and 8 and 4 and 11 and 1 and 9 and the “Time Closed” value (mice; Trial 1, individual animals, listed as 197, in s) was 60 and 208 and 48 and 55 and 163 and 41 and 0 and 116. The “Time Open” value (mice; Trial 1, individual animals, listed as 197, in s (unit assumed)) was 240 and 92 and 252 and 245 and 137 and 259 and 300 and 184, the “Closed Entries AVG” value (mice; Trial 2, group average) was 4.5 and the “Open Entries AVG” value (mice; Trial 2, group average) was 3. The “Time Closed AVG” value (mice; Trial 2, group average, in s) was 206.875, the “Time Open AVG” value (mice; Trial 2, group average, in s) was 93.125 and the “Closed Entries” value (mice; [3]) was 10 and 4 and 1 and 5 and 3 and 2. For the same compound, the “Open Entries” value (mice; [3]) was 3 and 1 and 2 and 7 and 4, the “Time Closed” value (mice; Trial 2, individual animals, listed as 197, in s) was 239 and 264 and 132 and 19 and 277 and 233 and 198 and 293 and the “Time Open” value (mice; Trial 2, individual animals, listed as 197, in s (unit assumed)) was 61 and 36 and 168 and 281 and 23 and 67 and 102 and 7. For the same compound, the “Time/Entry AVG” value (mice; elevated plus maze, group average) was 8.7983, the “Open Entries AVG” value (mice; elevated plus maze, group average of totals) was 14.5714 and the “Time Open AVG” value (mice; elevated plus maze, group average of totals, in s) was 96.8. For the same compound, the Time/Entry (mice; elevated plus maze, total time open / total open entries, one value per mouse, listed as 197) was 3.925 and 5.671 and 12.2 and 2.561 and 11.6778 and 13.5375 and 12.015, the “Open Entries” value (mice; elevated plus maze, totals listed by treatment group, one value per mouse, listed as 197) was 12 and 7 and 2 and 44 and 9 and 8 and 20 and the “Totals Closed Entries” value (mice; [4]) was 22 and 15 and 11 and 38 and 10 and 3 and 12. The “Totals Open Entries” value (mice; [4]) was 9 and 8 and 20 and 12 and 7 and 2 and 44, the “Totals Time Open” value (mice; elevated plus maze, trial 1 + trial 2, one value per mouse, listed as 197, in s) was 105.1 and 108.3 and 240.3 and 47.1 and 39.7 and 24.4 and 112.7 and the “Totals Time Closed” value (mice; elevated plus maze, trial 1 + trial 2, one value per mouse, listed as 197, in s (unit assumed)) was 346 and 410.7 and 291.7 and 404.6 and 493.6 and 547.6 and 346.3. The “Trial 1 Closed Entries” value (mice; [5]) was 17 and 7 and 6 and 31 and 5 and 2 and 8, the “Trial 1 Open Entries” value (mice; [5]) was 6 and 8 and 12 and 10 and 1 and 15 and the “Trial 1 Time Closed” value (mice; elevated plus maze, trial 1, one value per mouse, listed as 197, in s (unit assumed)) was 123.7 and 123.9 and 82.1 and 166.6 and 229.4 and 269.8 and 138. For the same compound, the “Trial 2 Closed Entries” value (mice; [6]) was 5 and 8 and 7 and 1 and 4, the “Trial 2 Open Entries” value (mice; [6]) was 3 and 0 and 8 and 2 and 1 and 29 and the “Trial 2 Time Open” value (mice; elevated plus maze, trial 2, one value per mouse, listed as 197, in s) was 39.9 and 0 and 56.7 and 15.1 and 0.5 and 14.1 and 49. The “Trial 2 Time Closed” value (mice; elevated plus maze, trial 2, one value per mouse, listed as 197, in s (unit assumed)) was 222.3 and 286.8 and 209.6 and 238 and 264.2 and 277.8 and 208.3 and the “Time/Entry AVG” value (mice; group average) was 38.3997.
